The values below come from the SangsterLogP compilation.

In general, logD refers to lipophilicity at a set pH, counting ionised and neutral species.

This series is described as follows: method code SF-HPLC, from DOI: 10.1016/s0968-0896(00)00015-8, PMID: 10819159. The following applies: pH 7.4.

The compound `Cc1cc(C)nc(N(COC(=O)C(C)(C)C)S(=O)(=O)c2ccc(N)cc2)n1` registered a logD of 3.07.

`Cc1cc(C)nc(N(COC(=O)c2ccccc2)S(=O)(=O)c2ccc(N)cc2)n1` returned a logD of 3.59.

Regarding `CC(C)(C)C(=O)OCN(Nc1ccc([N+](=O)[O-])cc1Oc1ccccc1)S(C)(=O)=O`, the logD amounted to 3.96.

As to `CS(=O)(=O)N(COC(=O)c1ccccc1)c1ccc([N+](=O)[O-])cc1Oc1ccccc1`, the logD was 3.97.

`CCOC(=O)CNC(=O)OCN(c1ccc([N+](=O)[O-])cc1Oc1ccccc1)S(C)(=O)=O` gave a logD of 2.28.

`Cc1noc(N(COC(=O)c2ccccc2)S(=O)(=O)c2ccc(N)cc2)c1C` had a logD of 2.83.

`CCOC(=O)CN(C)C(=O)OCN(c1ccc([N+](=O)[O-])cc1Oc1ccccc1)S(C)(=O)=O` displayed a logD of 2.2.

Regarding `Nc1ccc(S(=O)(=O)N(COC(=O)c2ccccc2)c2ncccn2)cc1`, the logD stood at 2.15.

Compound `COC(=O)C1CCCN1C(=O)OCN(c1ccc([N+](=O)[O-])cc1Oc1ccccc1)S(C)(=O)=O` (stereo not given) showed a logD of 2.85.

Compound `Nc1ccc(S(=O)(=O)N(COC(=O)c2ccccc2)c2cncs2)cc1` had a logD of 1.47.
